# US10220025B1, “Self-emulsifying formulation of CARP-1 functional mimetics” (Florida A&M University, priority 2016, dated 2019)
# Columns and labels:
# [1] = pharmacokinetic study of CFM-4.16 NLF and free drug (Study 2); type: in vivo, Sprague Dawley Rats; conditions: rats; 40 mg/kg orally
# Protocol: J. Biomed. Nanotechnol. 2015; 11:1608-1627]. Briefly, rats were fasted overnight prior to the start of experiments and randomly divided into three experimental groups receiving CFM-4.16 FD and CFM-4.16 NLF at 40 mg/kg orally and CFM-4.16 solution (CFM-4.16 sol) at 5 mg/kg by intravenous route. After the drug administration, blood samples (250 μl) were withdrawn from tail veins at 0, 0.25, 0.5, 1, 2, 4, 6, 8, 12 and 24 h, and collected directly into heparinized microvet blood collection tubes and plasma was obtained by centrifugation at 10,000 rpm for 10 min. The plasma samples were stored at −80° C. until needed for analysis. CFM-4.16 was extracted from the plasma by protein precipitation method and extracted samples were dissolved in mobile phase and samples were analyzed by HPLC. Oral bioavailability of CFM-4.16 FD and CFM-4.16 NLF along with their pharmacokinetic parameters such as area under curve (AUC), Cmax, t½, and tmax were estimated using non-compartmental techniques with WinNonlin® 5.0 software (Pharsight Corporation, Mountain View, Calif., USA).
# [2] = maximal tolerated dose determination; type: in vivo
# Source text: J. Biomed. Nanotechnol. 2015; 11:1608-1627]. […] Results was expressed as percentage.
# [3] = tested on: Adriamycin-resistant (ADR-R) MDA-MB-468 sublines; assay: MTT viability assay, ADR-resistant MDA-MB-468 sublines; type: cell-based, human; conditions: ADR-resistant MDA-MB-468 subline 1; FIG. 5E
# Protocol: Human TNBC MDA-MB-468 and MDA-MB-231, and mouse TNBC 4T1 cells were cultured in the chronic presence (>10 months) of Doxorubicin. The parental, wild-type cells were initially treated with 200 nM Doxorubicin for 2-3 weeks, followed by escalation to 400 nM, 1 μM, and 2 μM doses over a period of 3-4 weeks for each dose till resistance developed and the cells became well adapted to growth in […] of Doxorubicin for their routine culture. In the case of Cisplatin however, the human TNBC MDA-MB-468 and MDA-MB-231 were initially cultured in continuous presence of 1 μM Cisplatin for 3-4 weeks, and the dose was escalated to 1.5 μM and 3 μM over periods of 3-4 weeks for each dose till resistance developed and cells became adapted to routine culture in 3 μM dose. Subsequent, routine maintenance of the resistant cells in the presence of the respective drug was continued and multiple, resistant sublines for each of the TNBC cells were isolated and characterized for their growth inhibitory (GI)50 dose of respective therapeutic by the MTT-based viability assays as below.
# [4] = tested on: H2461 malignant pleural mesothelioma (MPM) cells; assay: MTT viability assay, MPM cells; type: cell-based, human; conditions: 20 μM; 24 h; FIG. 3A
# Source text: (§1) The current inventors' previous studies have indicated cancer cell growth inhibitory properties of CFMs in particular CFM-4 and CFM-5 [Puliyappadamba et al.]. […] J. Biomed. Nanotechnol. 2015; 11:1608-1627]. […] J. Biomed. Nanotechnol. 2015; 11:1608-1627]. On the basis of these findings, it was speculated that solubility and/or potency of the CFM-4 scaffold could be improved for its utility as a novel anti-TNBC molecule. To address this possibility, twelve (12) additional analogs of CFM-4 (Table 2) were synthesized using medicinal chemistry based structure activity relationship (SAR) studies. Each of the analog was suspended in DMSO, and their potency was evaluated in cell culture studies utilizing HeLa cervical cancer, MDA-MB-468 TNBC, and H2461 malignant pleural mesothelioma (MPM) cells by MTT based assays. […] Moreover, a 10 μM dose of CFM-4 inhibited MDA-MB-231 and MDA-MB-468 viabilities by ˜30% and 45%, respectively.
# [5] = tested on: parental and drug-resistant human TNBC cells
# Protocol: Control cells were treated with 0.1% DMSO in culture medium.
# [6] = tested on: MCF-7, SK-BR-3 and MDA-MB-453 breast cancer cells; assay: MTT viability assay, ADR plus CFM-4.16 in non-TNBC breast cancer cells; type: cell-based; conditions: not shown
# [7] = tested on: Klf4, Oct4, SOX2, CD133 in MDA-MB-231 TNBC cells; assay: Western blot, cancer stem cell markers; conditions: parental and ADR-resistant MDA-MB-231; FIG. 14B
# Protocol: (§2) For protein expression analysis, Western blot (WB) experiments were performed according to the standard procedures. The cells were either untreated or treated with various agents either alone or in combinations as indicated. Following treatment durations, the cells were lysed in cell lysis (10×) buffer (#9803; cell signaling) containing 0.1% of protease and phosphatase inhibitor cocktail (Sigma) for 20 min at 4° C. The lysates were centrifuged at 14,000 rpm at 4° C. for 15-20 min to remove debris. Protein concentrations of whole cell lysates were determined using the Protein Assay Kit. Supernatant proteins, 50-100 μg from each sample, were separated by SDS-polyacrylamide gel electrophoresis (SDS-PAGE) and transferred to polyvinylidene difluoride (PVDF) membrane (Bio-rad, Hercules, Calif.) by standard procedures. […] The antibody-bound proteins were visualized by treatment with the chemiluminescence detection reagent according to manufacturer's instructions, followed by exposure to X-ray film (Denville Scientific Inc.). The same membranes were re-probed with the anti-β-actin or anti-α-tubulin antibody, which was used as an internal control for protein loading.
# [8] = tested on: parental and drug-resistant TNBC and SKBR-3 cells; assay: soft-agar clonogenic assay; type: cell-based; conditions: 10 μM; FIGS. 11D, 12C, 12D, 13C
# Protocol: A soft-agar sandwich assay was performed. Cells were sandwiched between 0.6% and 0.3% agarose in DMEM medium containing 5% FBS in a six-well chamber (500 cells/chamber), and treated with buffer (Control), or respective agent for noted time and dose at 37° C. humidified CO2 incubator. The colonies from multiple random fields were counted, compared to control and photographed essentially as described before [Jamal S, Cheryan V T, Muthu M, Munie S, Levi E, Ashour A E, Pass H I, Wali A, Singh M, Rishi A K. CARP-1 functional mimetics are a novel class of small molecule inhibitors of malignant pleural mesothelioma cells. PLos One. 2014; 9:e891; Ashour A E, Jamal S, Cheryan V T, Muthu M, Zoheir K M A, Alafeefy A M, Abd-allah A R, Levi E, Tarca A L, Polin L A, Rishi A K. CARP-1 functional mimetics: A novel class of small molecule inhibitors of medulloblastoma cell growth. PLoS One. 2013; 8:e66733; Zhang L, Levi E, Majumder P, Yu Y, Aboukameel A, Du J, Xu H, Mohammad R M, Hatfield J S, Wali A, Adsay V, Majumdar A P N, Rishi A K. Transactivator of transcription tagged cell cycle and apoptosis regulatory protein-1 peptides suppress growth of human breast cancer cells in vitro and in vivo. Mol Cancer Ther. 2007; 6:1661-1672].
# TNBC cells = assay: MTT viability assay, parental TNBC cells (lines not singled out); type: cell-based
# Protocol: In vitro inhibition of cell growth was assessed by MTT (3-[4, 5-dimethyltiazol-2-yl]-2.5-diphenyl tetrazolium bromide) reagent. Cells (5×10^3) were seeded in a 96-well culture plate and subsequently treated with respective agents at different concentrations as mentioned. Control cells were treated with 0.1% DMSO in culture medium. After treatment, the cells were incubated with 1 mg/ml of MTT reagent at 37° C. for 2-4 hours and then MTT was removed and 50 μL of DMSO was added, followed by colorimetric analysis using a multi-label plate reader at 560 nm (Victor3; PerkinElmer, Wellesley, Mass., USA).
# [9] = tested on: Src, MET, and STAT3 kinases in TNBC cells; assay: Western blot, oncogenic tyrosine kinases; type: cell-based
# Protocol: as §2
# [10] = tested on: HeLa cervical cancer cells; assay: MTT viability assay, HeLa; type: cell-based; conditions: 20 μM; 24 h; FIG. 3A
# Source text: as §1
compound,measurement,setting,value
O=C1N(Cc2ccccc2Cl)c2ccccc2C12NN=C(c1cccc(Cl)c1)S2 (centres unmarked) [CFM-4.16],AUC,[1],21070 ± 4200 ng·h/mL
same,plasma Cmax concentration,[1],1190 ± 35 ng/mL
same,weight loss,"[2]; daily iv 24-32 mg/kg days 1-16, total dose 482 mg/kg, by day 7 (recovery by day 18)",1.6 % body weight
same,clinical signs,"[2]; daily iv, total dose 482 mg/kg",mild ataxia with some tail and leg twitching resolving within 1-2 minutes
same,histology,"[2]; daily iv, total dose 482 mg/kg",No other histological abnormalities
same,effect of siRNA-mediated depletion of CARP-1 on growth inhibition by the compound,[3],interfered with growth inhibition
same,loss of viability compared with CFM-4,[4],greater loss of viability
same,"loss of viability, CFM-4.16 alone",[5],45-55%
same,effect on ADR-mediated growth inhibition,[6],failed to enhance ADR-mediated growth inhibition
same,levels of Oct4,[7],robust decline in levels of Oct4
same,colonies formed in soft agar,[8],significant reduction in size and number of colonies
same,CC50,TNBC cells,7 to 8 µM
same,effect on ADR-mediated inhibition of viability,"TNBC cells; 5 μM each, combination, 6 h, FIG. 3C",enhanced ADR-mediated inhibition of viability
same,loss of cell viability compared with ADR-treated cell line,"TNBC cells; 5 μM, 6 h, FIG. 3C",greater loss of cell viability
same,growth of wild-type TNBC cells,"TNBC cells; 12 h, FIGS. 4A-4E",inhibited growth
same,activity relative to parent compound CFM-4 or other analogs,TNBC cells; SAR screen of twelve analogs,superior
same,GI50,TNBC cells; read-out: dose for inhibition of TNBC cells growth by 50% (GI50),~2 µM
same,activation of STAT3,"[9]; ADR as well as Cisplatin-resistant human TNBC cells, FIGS. 7A and 8C",robustly attenuated
same,activation and/or expression of MET and Src tyrosine kinases,[9]; parental and drug-resistant human and murine TNBC cells,reduced activation and/or expression
same,inhibition of viability compared with CFM-4,[10],greater inhibition of viability
